Converted amounts (≈) assume the structure as drawn. Starred links: 1 amine or outer side, 2 acyl side, 3 side chain; linkers in the order of their positions; H or OH if unused. Non-standard residues stand in square brackets, D forms with d. Residues, ends and D or L forms follow the SMILES beside them. *: point of attachment. Ethylenediamine = C(CN[*:2])N[*:1]; Lauroyl = CCCCCCCCCCCC(=O)*; Hexanoyl = CCCCCC(=O)*; Ahx = NCCCCCC(=O)O
What was measured:
Salmonella dublin (Lane) = experiment: MIC, NCCLS M7-A6 broth microdilution (Table 9, no superscript); format: cell-based
Procedure: (§1) Cation-adjusted Mueller Hinton broth was used in the broth microdilution method. In brief, a log-phase bacterial suspension was used to inoculate wells of a 96-well plate so that the final inoculum for each well contained 5×10^5 to 1×10^6 CFU/milliliter. […] Plates were incubated overnight at 37° C. The lowest concentration of peptide that contained no visible growth as evidenced by a lack of turbidity when compared to the control (no peptide) was determined as the MIC. Unless otherwise noted, MIC values listed in Table 9 utilized this method of MIC determination.

[1] = test system: Staphylococcus aureus ATCC 29213; experiment: MIC, NCCLS M7-A6 broth microdilution, cation-adjusted Mueller Hinton broth (Table 9, no superscript); format: cell-based; conditions: ATCC 29213
Procedure: as §1

Row | MIC S. dublin (Salmonella dublin (Lane)) [µg/mL] | MIC S. aureus [1] [µg/mL] | Compound
1 | 8 (≈ 4.09 µM) | 8 (≈ 4.09 µM) | CCCCCCCCCCCC(=O)NCCNC(=O)[C@H](CCCNC(=N)N)NC(=O)[C@H](CC(C)C)NC(=O)[C@H](Cc1ccccc1)NC(=O)[C@H](CC(N)=O)NC(=O)[C@H](CCCNC(=N)N)NC(=O)[C@H](C)NC(=O)[C@@H](NC(=O)[C@H](CC(=O)O)NC(=O)[C@H](CCCNC(=N)N)NC(=O)[C@H](Cc1c[nH]c2ccccc12)NC(=O)[C@H](CCCNC(=N)N)NC(=O)[C@H](CO)NC(=O)[C@@H](N)CCCNC(=N)N)C(C)C [Peptide 171, H2N-RSRWRDVARNFLR-Ethylamidolauryl] (H-RSRWRDVARNFLR-{Ethylenediamine-Lauroyl}; C-terminus assumed)
2 | >64 | >64 | CC[C@H](C)[C@H](NC(=O)[C@@H](NC(=O)[C@H](CC(C)C)NC(=O)[C@H](CO)NC(=O)[C@@H](NC(=O)[C@H](CCCNC(=N)N)NC(=O)[C@H](Cc1ccc(O)cc1)NC(=O)[C@H](CC(=O)O)NC(=O)[C@H](CCCNC(=N)N)NC(C)=O)[C@@H](C)O)[C@@H](C)O)C(=O)N[C@H](C(=O)N[C@@H](CCC(N)=O)C(=O)N[C@@H](CCCCN)C(=O)NCCCCCC(=O)N[C@H](C(=O)N[C@@H](CCCNC(=N)N)C(=O)N[C@H](C(=O)N[C@@H](CO)C(=O)N[C@@H](CCCNC(=N)N)C(=O)N[C@H](C(=O)NCC(=O)N[C@@H](CCCNC(=N)N)C(=O)N[C@@H](CO)C(=O)N[C@@H](CCCNC(=N)N)C(=O)N[C@@H](Cc1c[nH]c2ccccc12)C(=O)N[C@@H](CCCNC(=N)N)C(=O)N[C@@H](CC(=O)O)C(=O)N[C@@H](Cc1c[nH]c2ccccc12)C(=O)N[C@@H](CO)C(=O)N[C@@H](CCCNC(=N)N)C(=O)N[C@@H](CC(N)=O)C(=O)N[C@@H](Cc1ccccc1)C(=O)N[C@@H](CCSC)C(=O)N[C@@H](CCCNC(=N)N)C(N)=O)[C@@H](C)O)C(C)C)[C@@H](C)O)C(C)C [Peptide 28, Ac-RDYRTSLTIVQKXTRVSRTGRSRWRDWSRNFMR-NH2 X = aminohexanoic acid] (Ac-RDYRTSLTIVQK[Ahx]TRVSRTGRSRWRDWSRNFMR-NH2)
3 | >64 | >64 | CSCC[C@H](NC(=O)[C@H](Cc1ccccc1)NC(=O)[C@H](CC(N)=O)NC(=O)[C@H](CCCNC(=N)N)NC(=O)[C@H](CO)NC(=O)[C@H](Cc1c[nH]c2ccccc12)NC(=O)[C@H](CC(=O)O)NC(=O)[C@H](CCCNC(=N)N)NC(=O)[C@H](Cc1c[nH]c2ccccc12)NC(=O)[C@H](CCCNC(=N)N)NC(=O)[C@H](CO)NC(=O)[C@H](CCCNC(=N)N)NC(=O)CNC(=O)[C@@H](NC(=O)[C@H](CCCNC(=N)N)NC(=O)[C@H](CO)NC(=O)[C@@H](NC(=O)[C@H](CCCNC(=N)N)NC(=O)[C@@H](NC(C)=O)[C@@H](C)O)C(C)C)[C@@H](C)O)C(=O)N[C@@H](CCCNC(=N)N)C(=O)N[C@@H](C)C(=O)N[C@@H](C)C(=O)N[C@@H](CCCCN)C(=O)N[C@@H](CCCCN)C(=O)N[C@@H](CCCCN)C(=O)N[C@@H](CCCCN)C(=O)N[C@@H](CCCCN)C(N)=O [Peptide 6] (Ac-TRVSRTGRSRWRDWSRNFMRAAKKKKK-NH2)
4 | >64 | >64 | CCCCCCCCCCCC(=O)N[C@H](CCCNC(=N)N)C(=O)N[C@H](CC(C)C)C(=O)N[C@H](CCCNC(=N)N)C(=O)N[C@H](Cc1c[nH]c2ccccc12)C(=O)N[C@H](CCCNC(=N)N)C(=O)N[C@H](CC(C)C)C(=O)N[C@@H](C(=O)N[C@H](CC(C)C)C(=O)N[C@H](CCCNC(=N)N)C(=O)N[C@H](CC(C)C)C(=O)N[C@H](Cc1ccccc1)C(=O)N[C@H](CC(C)C)C(=O)N[C@H](CCCNC(=N)N)C(N)=O)C(C)C [Peptide 218, Lauryl-rlrwrlvlrlflr-NH2] (Lauroyl-[dR][dL][dR][dW][dR][dL][dV][dL][dR][dL][dF][dL][dR]-NH2)
5 | >64 | >64 | CCCCCC(=O)NCCCC[C@@H](NC(=O)[C@@H](CCCNC(=N)N)NC(=O)[C@@H](CCSC)NC(=O)[C@@H](Cc1ccccc1)NC(=O)[C@@H](CC(N)=O)NC(=O)[C@@H](CCCNC(=N)N)NC(=O)[C@@H](C)NC(=O)[C@H](NC(=O)[C@@H](CC(=O)O)NC(=O)[C@@H](CCCNC(=N)N)NC(=O)[C@@H](Cc1c[nH]c2ccccc12)NC(=O)[C@@H](CCCNC(=N)N)NC(=O)[C@@H](CO)NC(=O)[C@H](N)CCCNC(=N)N)C(C)C)C(N)=O [Peptide 197, H2N-rsrwrdvarnfmrk(Hexanyl)-NH2] (H-[dR][dS][dR][dW][dR][dD][dV][dA][dR][dN][dF][dM][dR][dK](Hexanoyl)-NH2)
6 | >64 | >64 | CSCC[C@H](NC(=O)[C@H](Cc1ccccc1)NC(=O)[C@H](CC(N)=O)NC(=O)[C@H](CCCNC(=N)N)NC(=O)[C@H](CO)NC(=O)[C@H](Cc1c[nH]c2ccccc12)NC(=O)[C@H](CC(=O)O)NC(=O)[C@H](CCCNC(=N)N)NC(=O)[C@H](Cc1c[nH]c2ccccc12)NC(=O)[C@H](CCCNC(=N)N)NC(=O)[C@H](CO)NC(=O)[C@H](CCCNC(=N)N)NC(=O)CNC(=O)[C@@H](NC(=O)[C@H](CCCNC(=N)N)NC(=O)[C@H](CO)NC(=O)[C@@H](NC(=O)[C@H](CCCNC(=N)N)NC(=O)[C@@H](NC(C)=O)[C@@H](C)O)C(C)C)[C@@H](C)O)C(=O)N[C@@H](CCCNC(=N)N)C(=O)N[C@@H](C)C(=O)N[C@@H](C)C(=O)N[C@@H](CCCCN)C(=O)N[C@@H](CCCCN)C(=O)N[C@@H](CCCCN)C(=O)N[C@@H](CCCCN)C(N)=O [Peptide 5] (Ac-TRVSRTGRSRWRDWSRNFMRAAKKKK-NH2)
7 | >64 | >64 | CCCCCC(=O)NCCCC[C@H](NC(=O)[C@H](CCCNC(=N)N)NC(=O)[C@H](CCSC)NC(=O)[C@H](Cc1ccccc1)NC(=O)[C@H](CC(N)=O)NC(=O)[C@H](CCCNC(=N)N)NC(=O)[C@H](C)NC(=O)[C@@H](NC(=O)[C@H](CC(=O)O)NC(=O)[C@H](CCCNC(=N)N)NC(=O)[C@H](Cc1c[nH]c2ccccc12)NC(=O)[C@H](CCCNC(=N)N)NC(=O)[C@H](CO)NC(=O)[C@@H](N)CCCNC(=N)N)C(C)C)C(N)=O [Peptide 183, H2N-RSRWRDVARNFMRK(Hexanyl)-NH2] (H-RSRWRDVARNFMRK(Hexanoyl)-NH2)
8 | >64 | >64 | CCCCCC(=O)NCCCC[C@@H](NC(=O)[C@@H](CCCNC(=N)N)NC(=O)[C@@H](CC(C)C)NC(=O)[C@@H](Cc1ccccc1)NC(=O)[C@@H](CC(N)=O)NC(=O)[C@@H](CCCNC(=N)N)NC(=O)[C@@H](C)NC(=O)[C@H](NC(=O)[C@@H](CC(=O)O)NC(=O)[C@@H](CCCNC(=N)N)NC(=O)[C@@H](Cc1c[nH]c2ccccc12)NC(=O)[C@@H](CCCNC(=N)N)NC(=O)[C@@H](CO)NC(=O)[C@H](N)CCCNC(=N)N)C(C)C)C(N)=O [Peptide 192, H2N-rsrwrdvarnflrk(Hexanyl)-NH2] (H-[dR][dS][dR][dW][dR][dD][dV][dA][dR][dN][dF][dL][dR][dK](Hexanoyl)-NH2)
9 | >64 | >64 | CSCC[C@H](NC(=O)[C@H](Cc1ccccc1)NC(=O)[C@H](CC(N)=O)NC(=O)[C@H](CCCNC(=N)N)NC(=O)[C@H](CO)NC(=O)[C@H](Cc1c[nH]c2ccccc12)NC(=O)[C@H](CC(=O)O)NC(=O)[C@H](CCCNC(=N)N)NC(=O)[C@H](Cc1c[nH]c2ccccc12)NC(=O)[C@H](CCCNC(=N)N)NC(=O)[C@H](CO)NC(=O)[C@H](CCCNC(=N)N)NC(=O)CNC(=O)[C@@H](NC(=O)[C@H](CCCNC(=N)N)NC(=O)[C@H](CO)NC(=O)[C@@H](NC(=O)[C@H](CCCNC(=N)N)NC(=O)[C@@H](NC(=O)[C@H](C)NC(=O)[C@H](C)NC(=O)[C@H](CCCCN)NC(=O)[C@H](CCCCN)NC(=O)[C@H](CCCCN)NC(=O)[C@H](CCCCN)NC(C)=O)[C@@H](C)O)C(C)C)[C@@H](C)O)C(=O)N[C@@H](CCCNC(=N)N)C(=O)N[C@@H](C)C(=O)N[C@@H](C)C(=O)N[C@@H](CCCCN)C(=O)N[C@@H](CCCCN)C(=O)N[C@@H](CCCCN)C(=O)N[C@@H](CCCCN)C(N)=O [Peptide 8] (Ac-KKKKAATRVSRTGRSRWRDWSRNFMRAAKKKK-NH2)
10 | 4 (≈ 2.25 µM) | 4 (≈ 2.25 µM) | CCCCCCCCCCCC(=O)N[C@@H](CO)C(=O)N[C@@H](CCCNC(=N)N)C(=O)N[C@@H](Cc1c[nH]c2ccccc12)C(=O)N[C@@H](CCCNC(=N)N)C(=O)N[C@@H](CC(=O)O)C(=O)N[C@H](C(=O)N[C@@H](C)C(=O)N[C@@H](CCCNC(=N)N)C(=O)N[C@@H](CC(N)=O)C(=O)N[C@@H](Cc1ccccc1)C(=O)N[C@@H](CCSC)C(=O)N[C@@H](CCCNC(=N)N)C(N)=O)C(C)C [Peptide 114, Lauryl-SRWRDVARNFMR-NH2] (Lauroyl-SRWRDVARNFMR-NH2)
11 | >64 | >64 | CSCC[C@H](NC(=O)[C@H](Cc1ccccc1)NC(=O)[C@H](CC(N)=O)NC(=O)[C@H](CCCNC(=N)N)NC(=O)[C@H](CO)NC(=O)[C@H](Cc1c[nH]c2ccccc12)NC(=O)[C@H](CC(=O)O)NC(=O)[C@H](CCCNC(=N)N)NC(=O)[C@H](Cc1c[nH]c2ccccc12)NC(=O)[C@H](CCCNC(=N)N)NC(=O)[C@H](CO)NC(=O)[C@H](CCCNC(=N)N)NC(=O)CNC(=O)[C@@H](NC(=O)[C@H](CCCNC(=N)N)NC(=O)[C@H](CO)NC(=O)[C@@H](NC(=O)[C@H](CCCNC(=N)N)NC(=O)[C@@H](NC(C)=O)[C@@H](C)O)C(C)C)[C@@H](C)O)C(=O)N[C@@H](CCCNC(=N)N)C(=O)N[C@@H](C)C(=O)N[C@@H](C)C(=O)N[C@@H](CCCCN)C(=O)N[C@@H](CCCCN)C(=O)N[C@@H](CCCCN)C(=O)N[C@@H](CCCCN)C(=O)N[C@@H](CCCCN)C(=O)N[C@@H](CCCCN)C(N)=O [Peptide 7] (Ac-TRVSRTGRSRWRDWSRNFMRAAKKKKKK-NH2)
